In the assay the target is MYT1 protein (Homo sapiens (Human), UniProt Q99640). In words: Test for binding to ATP binding site of MYT1 (Kinase Tracer 178 / Eu-Anti-GST antibody TR-FRET). The following applies: ATP binding site of MYT1, 30 minutes at room temperature.

pIC50: −log10 of the molar value. Counter-ions that a name gives are not always drawn.

In general, pIC50 refers to the negative decadic logarithm of the IC50, by convention in mol/L. Low values mean a large IC50, high ones a small IC50.

MYT1 protein, sequence (Q99640 whole entry): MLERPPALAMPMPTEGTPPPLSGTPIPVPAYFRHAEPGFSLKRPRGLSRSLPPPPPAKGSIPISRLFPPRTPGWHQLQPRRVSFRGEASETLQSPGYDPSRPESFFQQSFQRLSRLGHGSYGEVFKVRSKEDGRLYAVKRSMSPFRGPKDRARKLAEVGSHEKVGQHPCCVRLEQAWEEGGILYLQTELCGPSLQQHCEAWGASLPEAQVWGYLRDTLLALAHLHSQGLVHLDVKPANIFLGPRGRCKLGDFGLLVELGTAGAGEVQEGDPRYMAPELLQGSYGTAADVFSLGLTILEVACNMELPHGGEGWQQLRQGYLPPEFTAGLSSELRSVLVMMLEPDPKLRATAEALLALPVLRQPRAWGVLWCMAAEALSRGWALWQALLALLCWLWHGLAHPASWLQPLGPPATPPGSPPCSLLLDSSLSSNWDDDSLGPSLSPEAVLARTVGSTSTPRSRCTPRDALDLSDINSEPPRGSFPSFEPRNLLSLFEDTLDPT

In turn, `CN1CCN(c2cc3c(-c4ccc(F)c5[nH]ncc45)c(N)c(=O)[nH]c3c3cccnc23)CC1` [Compound C114, 3-Amino-4-(7-fluoro-1H-indazol-4-yl)-6-(4-methylpiperazin-1-yl)-1H-1,7-phenanthrolin-2-one] showed a pIC50 of 8.70.

`Nc1c(-c2ccc(F)c3[nH]ncc23)c2cc(N3CCC(F)(F)C3)c3ncccc3c2[nH]c1=O` [Compound C115, 3-Amino-6-(3,3-difluoropyrrolidin-1-yl)-4-(7-fluoro-1H-indazol-4-yl)-1H-1,7-phenanthrolin-2-one] showed a pIC50 of 8.43. This pIC50 lies 0.27 log units lower than the previous one. With `Nc1c(-c2ccc(F)c3[nH]ncc23)c2cc(N3CCC(O)C3)c3ncccc3c2[nH]c1=O` (centres unmarked) [Compound C116, 3-Amino-4-(7-fluoro-1H-indazol-4-yl)-6-(3-hydroxypyrrolidin-1-yl)-1H-1,7-phenanthrolin-2-one], the pIC50 was 8.57. The result for `Nc1c(-c2ccc(F)c3[nH]ncc23)c2cc(N3CCC(N4CCOCC4)CC3)c3ncccc3c2[nH]c1=O` [Compound C117, 3-Amino-4-(7-fluoro-1H-indazol-4-yl)-6-(4-morpholin-4-ylpiperidin-1-yl)-1H-1,7-one] reads 8.46. `Nc1c(-c2ccc(F)c3[nH]ncc23)c2cc(N3CC4(COC4)C3)c3ncccc3c2[nH]c1=O` [Compound C118, 3-Amino-4-(7-fluoro-1H-indazol-4-yl)-6-(2-oxa-6-azaspiro[3,3]heptan-6-yl)-1H-1,7-one] had a pIC50 of 8.64. The pIC50 values of the last two molecules are within 0.2 log units of each other. In turn, `Nc1c(-c2ccc(F)c3[nH]ncc23)c2cc(N3CCC(N4CCCC4)CC3)c3ncccc3c2[nH]c1=O` [Compound C119, 3-Amino-4-(7-fluoro-1H-indazol-4-yl)-6-(4-pyrrolidin-1-ylpiperidin-1-yl)-1H-1,7-phenanthrolin-2-one] gave a pIC50 of 8.66. The molecule `Nc1c(-c2ccc(F)c3[nH]ncc23)c2cc(N3CCC4(COC4)C3)c3ncccc3c2[nH]c1=O` [Compound C120, 3-Amino-4-(7-fluoro-1H-indazol-4-yl)-6-(2-oxa-7-azaspiro[3.4]octan-7-yl)-1H-1,7-one] showed a pIC50 of 8.54. As for `Nc1c(-c2ccc(F)c3[nH]ncc23)c2cc(N3CCC3)c3ncccc3c2[nH]c1=O` [Compound C121, 3-Amino-6-(azetidin-1-yl)-4-(7-fluoro-1H-indazol-4-yl)-1H-1,7-phenanthrolin-2-one], the negative logarithm of the IC50 (pIC50) is 8.52. In turn, `Nc1c(-c2ccc(F)c3[nH]ncc23)c2cc(N3CCOCC3)c3ncccc3c2[nH]c1=O` [Compound C122, 3-Amino-4-(7-fluoro-1H-indazol-4-yl)-6-morpholin-4-yl-1H-1,7-phenanthrolin-2-one 2,2,2-trifluoroacetate] had a pIC50 of 8.35. To `Nc1c(-c2ccc(F)c3[nH]ncc23)c2cc(N3CC(F)(F)C3)c3ncccc3c2[nH]c1=O` [Compound C123, 3-Amino-6-(3,3-difluoroazetidin-1-yl)-4-(7-fluoro-1H-indazol-4-yl)-1H-1,7-phenanthrolin-2-one] belongs 8.47. `Nc1c(-c2ccc(F)c3[nH]ncc23)c2cc(N3CCS(=O)(=O)CC3)c3ncccc3c2[nH]c1=O` [Compound C124, 3-Amino-6-(1,1-dioxo-1,4-thiazinan-4-yl)-4-(7-fluoro-1H-indazol-4-yl)-1H-1,7-phenanthrolin-2-one] gave a pIC50 of 8.47. To `Nc1c(-c2ccc(F)c3[nH]ncc23)c2cc(N3CCCCC3)c3ncccc3c2[nH]c1=O` [Compound C125, 3-Amino-4-(7-fluoro-1H-indazol-4-yl)-6-piperidin-1-yl-1H-1,7-phenanthrolin-2-one] belongs 8.23; to `Nc1c(-c2ccc(F)c3[nH]ncc23)c2cc(N3CCC(F)(F)CC3)c3ncccc3c2[nH]c1=O` [Compound C126, 3-Amino-6-(4,4-difluoropiperidin-1-yl)-4-(7-fluoro-1H-indazol-4-yl)-1H-1,7-phenanthrolin-2-one], 8.33. Molecule `CS(=O)(=O)Nc1cc2c(-c3ccc(F)c4[nH]ncc34)c(N)c(=O)[nH]c2c2cccnc12` [Compound C127, N-[3-Amino-4-(7-fluoro-1H-indazol-4-yl)-2-oxo-1H-1,7-phenanthrolin-6-yl]methanesulfonamide] gave a pIC50 of 8.82. With `Nc1c(-c2ccc(F)c3[nH]ncc23)c2cc(N3CC4CC(C3)O4)c3ncccc3c2[nH]c1=O` [Compound C128, 3-Amino-4-(7-fluoro-1H-indazol-4-yl)-6-(6-oxa-3-azabicyclo[3.1.1]heptan-3-yl)-1H-1,7-phenanthrolin-2-one], the negative-log IC50 (pIC50) was 8.24.

Molecule `Nc1c(-c2ccc(F)c3[nH]ncc23)c2cc(N3C4COCC3C4)c3ncccc3c2[nH]c1=O` [Compound C129, 3-Amino-4-(7-fluoro-1H-indazol-4-yl)-6-(3-oxa-6-azabicyclo[3.1.1]heptan-6-yl)-1H-1,7-one] showed a pIC50 of 8.48. Turning to `Nc1c(-c2ccc(F)c3[nH]ncc23)c2cc(NS(=O)(=O)C3CC3)c3ncccc3c2[nH]c1=O` [Compound C130, N-[3-amino-4-(7-fluoro-1H-indazol-4-yl)-2-oxo-1H-1,7-phenanthrolin-6-yl]cyclopropanesulfonamide], the pIC50 is 8.43. To `Nc1c(-c2ccc(F)c3[nH]ncc23)c2cc(N3CCC(C(F)(F)F)CC3)c3ncccc3c2[nH]c1=O` [Compound C131, 3-Amino-4-(7-fluoro-1H-indazol-4-yl)-6-[4-(trifluoromethyl)piperidin-1-yl]-1H-1,7-phenanthrolin-2-one] belongs 7.48; to `Nc1c(-c2ccc(F)c3[nH]ncc23)c2cc(C3CNC3)c3ncccc3c2[nH]c1=O` [Compound C132, 3-Amino-6-(azetidin-3-yl)-4-(7-fluoro-1H-indazol-4-yl)-1H-1,7-phenanthrolin-2-one; formate], 7.96; to `Nc1c(-c2ccc(F)c3[nH]ncc23)c2cc(C3CCNCC3)c3ncccc3c2[nH]c1=O` [Compound C133, 3-Amino-4-(7-fluoro-1H-indazol-4-yl)-6-piperidin-4-yl-1H-1,7-phenanthrolin-2-one; hydrochloride], 8.77. Regarding `CC1(c2cc3c(-c4ccc(F)c5[nH]ncc45)c(N)c(=O)[nH]c3c3cccnc23)CC1` [Compound C142, 3-Amino-4-(7-fluoro-1H-indazol-4-yl)-6-(1-methylcyclopropyl)-1H-1,7-phenanthrolin-2-one], the pIC50 was 7.74. In turn, `Nc1c(-c2ccc(F)c3[nH]ncc23)c2cc(C3CC3(F)F)c3ncccc3c2[nH]c1=O` (centres unmarked) [Compound C145, 3-Amino-6-(2,2-difluorocyclopropyl)-4-(7-fluoro-1H-indazol-4-yl)-1H-1,7-phenanthrolin-2-one] showed a pIC50 of 8.51. To `Nc1c(-c2ccc(Cl)c3[nH]ncc23)c2cc(C3CCC3)c3ncccc3c2[nH]c1=O` [Compound C147, 3-Amino-4-(7-chloro-1H-indazol-4-yl)-6-cyclobutyl-1H-1,7-phenanthrolin-2-one] belongs 8.28; to `N#Cc1cc2c(-c3ccc(Cl)c4[nH]ncc34)c(N)c(=O)[nH]c2c2cccnc12` [Compound C148, 3-Amino-4-(7-chloro-1H-indazol-4-yl)-2-oxo-1H-1,7-phenanthroline-6-carbonitrile], 8.39; to `N#Cc1cc2c(-c3ccc(C#N)c4[nH]ncc34)c(N)c(=O)[nH]c2c2cccnc12` [Compound C149, 3-Amino-4-(7-cyano-1H-indazol-4-yl)-2-oxo-1H-1,7-phenanthroline-6-carbonitrile], 6.42. As to `CCc1cc2c(-c3ccc(Cl)c4[nH]ncc34)c(N)c(=O)[nH]c2c2cccnc12` [Compound C150, 3-Amino-4-(7-chloro-1H-indazol-4-yl)-6-ethyl-1H-1,7-phenanthrolin-2-one], the negative-log IC50 (pIC50) is 8.72. This pIC50 lies 2.30 log units higher than the previous one. The result for `Nc1c(-c2ccc(Cl)c3[nH]ncc23)c2cc(C3CCCC3)c3ncccc3c2[nH]c1=O` [Compound C151, 3-Amino-4-(7-chloro-1H-indazol-4-yl)-6-cyclopentyl-1H-1,7-phenanthrolin-2-one] reads 8.00. As to `Cc1cc2c(-c3ccc(Cl)c4[nH]ncc34)c(N)c(=O)[nH]c2c2cccnc12` [Compound C152, 3-Amino-4-(7-chloro-1H-indazol-4-yl)-6-methyl-1H-1,7-phenanthrolin-2-one], the pIC50 is 8.40. In turn, `Cc1cc2c(-c3ccc(C)c4[nH]ncc34)c(N)c(=O)[nH]c2c2cccnc12` [Compound C153, 3-Amino-6-methyl-4-(7-methyl-1H-indazol-4-yl)-1H-1,7-phenanthrolin-2-one] gave a negative-log IC50 (pIC50) of 8.36. For `Nc1c(-c2c(F)ccc3[nH]ncc23)c2cc(Br)c3ncccc3c2[nH]c1=O` [Compound C154, 3-Amino-6-bromo-4-(5-fluoro-1H-indazol-4-yl)-1H-1,7-phenanthrolin-2-one], the pIC50 was 8.48. This pIC50 and that of the molecule before are within 0.2 log units of each other. In turn, `Nc1c(-c2ccc(F)c3[nH]ncc23)c2cc(C3CCOC3)c3ncccc3c2[nH]c1=O` (centres unmarked) [Compound C159, 3-Amino-4-(7-fluoro-1H-indazol-4-yl)-6-(oxolan-3-yl)-1H-1,7-phenanthrolin-2-one] showed a pIC50 of 8.64. The result for `Nc1c(-c2ccc(F)c3[nH]ncc23)c2cc(CCCF)c3ncccc3c2[nH]c1=O` [Compound C160, 3-Amino-4-(7-fluoro-1H-indazol-4-yl)-6-(3-fluoropropyl)-1H-1,7-phenanthrolin-2-one] reads 8.60; that for `Nc1c(-c2ccc(F)c3[nH]ncc23)c2cc(CCC(F)(F)F)c3ncccc3c2[nH]c1=O` [Compound C161, 3-Amino-4-(7-fluoro-1H-indazol-4-yl)-6-(3,3,3-trifluoropropyl)-1H-1,7-phenanthrolin-2-one], 8.07.

In turn, `Nc1c(-c2ccc(F)c3[nH]ncc23)c2cc(C3CCC(F)(F)C3)c3ncccc3c2[nH]c1=O` (centres unmarked) [Compound C162, 3-Amino-6-(3,3-difluorocyclopentyl)-4-(7-fluoro-1H-indazol-4-yl)-1H-1,7-phenanthrolin-2-one] showed a pIC50 of 7.92.

`Nc1c(-c2ccc(F)c3[nH]ncc23)c2cc(C3CCC(F)(F)CC3)c3ncccc3c2[nH]c1=O` [Compound C163, 3-Amino-6-(4,4-difluorocyclohexyl)-4-(7-fluoro-1H-indazol-4-yl)-1H-1,7-phenanthrolin-2-one] had a pIC50 of 7.62.
